{"source": "patent US9593309B2", "about": "“Media for culturing, preserving, and administering regenerative cells” (InGeneron, Inc., priority 2012, dated 2017)", "key": {"Sox2": {"test_system": "Sox2", "experiment": "Sox2 mRNA level in cultured Ad-MSCs, normalized to β-Actin", "assay_type": "cell-based, canine", "conditions": "5% (v/v) formulation, 6 days culture, vs other GAG formulations", "experimental": "(§1) Assays for cell proliferation, colony forming units (CFU), gene expression analyses, cell surface markers, and chondrogenic and osteogenic differentiation were performed. Cell growth and Colony Forming Units (CFU) were grown in monolayer on tissue culture grade plastic in alpha MEM, 20% FBS (v/v), pen/strep. Nucleated cell counts were performed by staining with Syto13 (Invitrogen) followed by hemacytometer counting under fluorescence microscopy. Gene expression analysis was performed by quantitative RT-PCR profiling, BioRad iQ. Flow Activated Cell Storing (FACS) analyses were performed at M.D. Anderson Cancer Center FACS Core Facilities, Houston, Tex. by GALLIOS Flow Cytometry Instruments (Beckman Coulter). For osteogenic and chondrogenic differentiation, cells were cultured in STEMPRO induction media (Invitrogen, Carlsbad, Calif.) for 14 days, fixed in 4% formalin, and stained with Alzarin red and Alcian Blue, respectively. Statistical analyses were performed by ANOVA.\nCanine Ad-MSCs were grown for 6 days in culture in the presence of complete growth media and the respective 5% (v/v) GAG formulations. Magnification=100×. Sox2 levels, a marker of stem cell proliferation, were measured in total RNA samples and normalized to β-Actin mRNA. Here “GAG” represents poly-sulfated glycosaminoglycan (ADEQUAN)."}, "[1]": {"test_system": "Ad-MSCs (canine adipose SVF cells)", "experiment": "Ad-MSC proliferation, nucleated cell counts (Syto13) of plated adipose SVF cells", "assay_type": "cell-based", "conditions": "concentration not given", "experimental": "as §1, with “For osteogenic and chondrogenic differentiation, cells were cultured in STEMPRO induction media (Invitrogen, Carlsbad, Calif.) for 14 days, fixed in 4% formalin, and stained with Alzarin red and Alcian Blue, respectively. Statistical analyses were performed by ANOVA.” left out\nMedia was changed at days 3 and 6. Nucleated cell counts were performed by Syto13 staining followed by hemacytometer counting under fluorescence microscopy (FIG. 1B).\nFresh canine adipose SVF cells were plated at equal nucleated cell density and grown for 7 days in culture on tissue culture plastic in the presence of complete growth media and the respective concentrations (v/v) of GAG formulation. Nucleated cell counts were performed by Syto13 staining followed by hemacytometer counting under fluorescence microscopy. […]"}}, "data": [{"substance": "hyaluronic acid [HA]", "values": [{"measurement": "Sox2 levels", "setting": "Sox2", "result": "qualitatively similar, but of lesser magnitude"}, {"measurement": "effect on cell proliferation when added to culture media", "setting": "[1]", "result": "pro-mitotic, but to a lesser magnitude"}]}]}
